Patent publication US6706740B2, “Fungicidal heterocyclic aromatic amides and their compositions, methods of use and preparation” (Dow AgroSciences LLC, priority 1999, dated 2004)
Read-outs that look alike come from different tables or passages of the source.

Key:
[1] = test system: Erysiphe graminis—ERYSGT; test: Powdery Mildew of Wheat, in vivo whole plant, 24 Hour Protectant; settings: Erysiphe, read-out: ERYSGT in vivo 1 Day Protectant
[2] = test system: Leptosphaeria nodorum—LEPTNO; test: Glume Blotch of Wheat, in vivo whole plant, 24 Hour Protectant; settings: for pest or weed control at 100 ppm: Leptosphaeria, read-out: LEPTNO in vivo 1 Day Protectant
[3] = test system: Phytophthora infestans (PHYTIN); test: microbe, parasite or virus in culture; format: cell-based; settings: Phytophthora infestans, read-out: PHYTIN in vitro Growth Inhibition
[4] = test system: Puccinia recondita—PUCCRT; test: Brown Rust of Wheat, in vivo whole plant, 24 Hour Protectant; settings: for pest or weed control at 100 ppm: Puccinia, read-out: PUCCRT in vivo 1 Day Protectant
[5] = test system: Rhizoctonia solani (RHIZSO); test: microbe, parasite or virus in culture; format: cell-based; settings: Rhizoctonia solani, read-out: RHIZSO in vitro Growth Inhibition
[6] = test system: Phytophthora infestans—PHYTIN; test: whole plant or invertebrate; format: in vivo; settings: Phytophthora, in Solanum lycopersicum, 24 h, read-out: PHYTIN in vivo 1 Day Protectant
[7] = test system: Mycosphaerella graminicola (Septoria tritici—SEPTTR); test: In vitro fungal growth inhibition, Mycosphaerella graminicola (SEPTTR); format: cell-based; settings: Zymoseptoria tritici, read-out: SEPTTR in vitro Growth Inhibition
[8] = test system: Stagonospora nodorum (Leptosphaeria nodorum—LEPTNO); test: In vitro fungal growth inhibition, Stagonospora nodorum (LEPTNO); format: cell-based; settings: Leptosphaeria, read-out: LEPTNO in vitro Growth Inhibition
[9] = test system: Ustilago maydis (USTIMA); test: microbe, parasite or virus in culture; format: cell-based; settings: Mycosarcoma maydis, read-out: USTIMA in vitro Growth Inhibition
[10] = test system: Magnaporthe grisea (Pyricularia oryzae—PYRIOR); test: microbe, parasite or virus in culture; format: cell-based; settings: Pyricularia oryzae, read-out: PYRIOR in vitro Growth Inhibition
[11] = test system: Septoria tritici—SEPTTR; test: Leaf Blotch of Wheat, in vivo whole plant, 24 Hour Protectant; settings: for pest or weed control at 100 ppm: Zymoseptoria tritici, 24 h, read-out: SEPTTR in vivo 1 Day Protectant
[12] = 100 ppm spray, 24 hour protectant, wheat, control of fungal infection vs untreated plants
[13] = wheat plants sprayed at 100 ppm, inoculated after 24 hours, control of fungal infection vs untreated plants
[14] = 100 ppm spray, wheat, 24 hour protectant, control of fungal infection vs untreated plants
[15] = 100 ppm spray, wheat, 24 hour protectant, % control of fungal infection vs untreated plants

| SMILES | inhibition at 25 ppm [3] [%] | inhibition at 25 ppm [5] [%] | melting point [°C] | pest or weed control at 100 ppm [6] [%] | inhibition at 25 ppm ([7]; 25 ppm in growth medium) [%] | inhibition at 25 ppm ([8]; 25 ppm in growth medium) [%] | inhibition at 25 ppm [9] [%] | inhibition at 25 ppm [10] [%] | pest or weed control at 100 ppm [1, 13] [%] | pest or weed control at 100 ppm [2, 13] [%] | pest or weed control at 100 ppm [4, 13] [%] | inhibition at 25 ppm ([7]; 25 ppm in the growth medium) [%] | inhibition at 25 ppm ([8]; 25 ppm in the growth medium) [%] | pest or weed control at 100 ppm [11, 13] [%] | other results |
| --- | --- | --- | --- | --- | --- | --- | --- | --- | --- | --- | --- | --- | --- | --- | --- |
| Cc1ccc(CNC(=O)c2ncccc2O)cc1 [Compound 223] | > 80 | < 80 | 83 to 84 | < 25 | < 80 | > 80 | > 80 | > 80 |  |  |  |  |  |  | pest or weed control at 100 ppm [1, 12]: < 25%; pest or weed control at 100 ppm [2, 12]: < 25%; pest or weed control at 100 ppm [4, 12]: < 25%; pest or weed control at 100 ppm [11, 12]: < 25% |
| CC1(C)CC(NC(=O)c2cc(O)cnc2O)CC(C)(C)C1 [Compound 526] | < 80 | < 80 | 320 to 327 | < 25 |  |  | < 80 | < 80 | < 25 | 25 to 74 | < 25 | < 80 | < 80 | 25 to 74 |  |
| COc1ccnc(C(=O)NC2COC(=O)CC3(CCCCC3)CC(=O)OC2)c1O [Compound 380] | < 80 | < 80 | 107 to 108 | < 25 | < 80 | < 80 | < 80 | < 80 |  |  |  |  |  |  | pest or weed control at 100 ppm [1, 14]: 25 to 74%; pest or weed control at 100 ppm [2, 14]: 25 to 74%; pest or weed control at 100 ppm [4, 14]: < 25%; pest or weed control at 100 ppm [11, 14]: < 25% |
| COc1ccnc(C(=O)Nc2ccc(Oc3ccnc(C(F)(F)F)c3)cc2)c1O [Compound 465] | < 80 | < 80 | 160 to 162 | < 25 |  |  | < 80 | > 80 | < 25 | 25 to 74 | < 25 | < 80 | < 80 | 25 to 74 |  |
| CC(C)(C)CNC(=O)c1cccnc1O [Compound 514] | < 80 | < 80 | 180 to 181 | < 25 |  |  | < 80 | < 80 | < 25 | 25 to 74 | < 25 | < 80 | < 80 | < 25 |  |
| Cc1ccc(C(=O)N[C@H]2COC(=O)[C@H](Cc3ccccc3)[C@@H](OC(=O)C(C)C)[C@H](C)OC2=O)c(O)n1 [Compound 525] | < 80 | < 80 | 247 to 250 | < 25 |  |  | < 80 | < 80 | < 25 |  | 25 to 74 | < 80 | < 80 | 25 to 74 | LEPTNO in vivo 1 Day Protectant [2, 13]: + + |
| COc1ccnc(C(=O)Nc2cccc(NC(=O)c3ccc(C(F)(F)F)cc3)c2)c1O [Compound 454] | < 80 | < 80 | 240 to 242 | < 25 | < 80 | < 80 | < 80 | < 80 |  |  |  |  |  |  | pest or weed control at 100 ppm [1, 14]: < 25%; pest or weed control at 100 ppm [2, 14]: 25 to 74%; pest or weed control at 100 ppm [4, 14]: < 25%; pest or weed control at 100 ppm [11, 14]: 25 to 74% |
| O=C(NCc1ccccc1Cl)c1ncccc1O [Compound 218] | > 80 | > 80 | 97 to 99 | < 25 | < 80 | > 80 | > 80 | > 80 |  |  |  |  |  |  | pest or weed control at 100 ppm [1, 12]: < 25%; pest or weed control at 100 ppm [2, 12]: < 25%; pest or weed control at 100 ppm [4, 12]: < 25%; pest or weed control at 100 ppm [11, 12]: < 25% |
| COc1ccnc(C(=O)Nc2ccc(C(=O)Oc3ccc(C(F)(F)F)cc3)cc2)c1OC(C)=O [Compound 717] | < 80 | < 80 | 203 to 205 | < 25 | < 80 | < 80 | < 80 | < 80 |  |  |  |  |  |  | pest or weed control at 100 ppm [1, 15]: < 25%; pest or weed control at 100 ppm [2, 15]: 25 to 74%; pest or weed control at 100 ppm [4, 15]: < 25%; pest or weed control at 100 ppm [11, 15]: 25 to 74% |
| COCCC(=O)Oc1c(OC)ccnc1C(=O)N[C@H]1COC(=O)[C@H](Cc2ccccc2)[C@@H](OC(=O)C(C)C)[C@H](C)OC1=O [Compound 658] | < 80 | < 80 | 126 to 128 | < 25 | < 80 | < 80 | < 80 | > 80 |  |  |  |  |  |  | pest or weed control at 100 ppm [1, 15]: < 25%; LEPTNO in vivo 1 Day Protectant [2, 15]: + +; PUCCRT in vivo 1 Day Protectant [4, 15]: + +; SEPTTR in vivo 1 Day Protectant [11, 15]: + + |
| COc1ccnc(C(=O)Nc2ccc(Oc3cc(C(F)(F)F)ccn3)cc2)c1O [Compound 461] | < 80 | < 80 | 169 to 171 | < 25 |  |  | < 80 | < 80 | < 25 | 25 to 74 | 25 to 74 | < 80 | < 80 | 25 to 74 |  |
| O=C(NCc1ccccn1)c1nc(Br)ccc1O [Compound 483] | < 80 | < 80 | 124 to 126 | < 25 |  |  | < 80 | < 80 | < 25 | < 25 | < 25 | < 80 | > 80 | < 25 |  |
| CCOC(=O)c1cc(Oc2ccc(C(F)(F)F)cc2)ccc1NC(=O)c1nccc(OC)c1O [Compound 427] | < 80 | < 80 | 145 to 147 | < 25 | < 80 | < 80 | < 80 | < 80 |  |  |  |  |  |  | pest or weed control at 100 ppm [1, 14]: < 25%; pest or weed control at 100 ppm [2, 14]: 25 to 74%; pest or weed control at 100 ppm [4, 14]: 25 to 74%; pest or weed control at 100 ppm [11, 14]: 25 to 74% |
